Data taken from EP1923473B1, “Bis-diglycolamides (BISDGA) as new extractants for lanthanides [Ln(III)] and actinides [An(III)] from aqueous high-level wastes” (Universidad Autónoma de Madrid, priority 2006, dated 2008).

Assays:
Assay type in all cases: physicochemical
Hydrolytic stability = settings: 0.1 mol/L in n-dodecane/1-octanol (95:5)%vol; permanent contact with 3 mol/L nitric acid
Experimental: The organic solutions of the compounds to be tested were prepared and equilibrated with 3 mol/L nitric acid, as has been indicated in sections A) and B).
Then, 700 µL of the equilibrated organic phase were put in vials of an approximate volume of 2 mL and were contacted with 700 µL of 3 mol/L nitric acid. They were stirred vigorously in an oscillating shaker for periods of 7, 15, 24, 36, 42, 50 and 66 days. After each permanent contact period with the nitric acid aqueous phase, the extraction capability of the organic solution was evaluated, taking 600 µL of the corresponding organic phase and contacting it with 600 µL of aqueous phase formed by a 3 mol/L nitric acid solution spiked with 600 Bq of ^152Eu and with 600 Bq of ^241Am. It was stirred vigorously by means of an oscillating shaker for 15 minutes. The separation of the phases was carried out by centrifugation at 5000 rpm. 400 µL of each of the phases were taken for the determination of the concentration of ^152Eu and ^241Am, as in section C).
After the permanent contact periods with the 3 mol/L nitric acid solution, the extraction capability of the organic solutions of both compounds was evaluated with 3 mol/L nitric acid solutions containing 600 Bq of ^152 Eu and 600 Bq of ^241Am.

[1] = Batch extraction from simulated HLLW from the PUREX process; settings: 0.1 mol/L in TPH/1-octanol (90:10)
Description: (§1) The feed solution used for the extraction tests is a simulated solution of an HLLW from the PUREX process, the composition of which is shown in Table 4. Table 4: Composition of the simulated HLLW-PUREX solution used for the extraction tests
(§2) The composition of the HLLW corresponds to a burn-up of 33 GWd/tHM, the generated volume of HLLW being 5000 1/t of fuel. The feed was spiked with ^241Am, ^244Cm, ^252Cf and ^152Eu. Oxalic acid and N-(2-hydroxyethyl)ethylenediaminotriacetate (HEDTA) were also added before the extraction tests.
(§3) 500 µL of the aqueous and organic phases were spiked with 10 µL of a tracer solution containing 241Am, 244Cm, 252Cf and ^152Eu, and were equilibrated for 10 minutes while they were stirred vigorously in a vortex stirrer. After the separation of the phases by centrifugation, 200 µL aliquots of each phase were taken for the determination of the concentration of ^241Am and ^152Eu using a high-purity germanium spectrometer system (EG&G Ortec). The nuclides ^241Am, ^244Cm and ^252Cf were measured by alpha spectrometry with an α-Analyst device of the company Canberra-Packard GmbH, Germany.
(§4) The concentrations of the stable elements were determined by mass spectrometry with an inductively coupled plasma source (ICP-MS) in a DRC Elan 6100 device of Perkin Elmer Sciex. The aqueous phase was measured directly after the appropriate dilution. The organic phase was analyzed after having mineralized the organic matter by microwave acid digestion and subsequent dilution.
(§5) The distribution coefficients were calculated for each element according to section C).
(§6) Extraction experiments were carried out with said simulated HLLW in a pure form and also adding oxalic acid and HEDTA to it.

[2] = as above; settings: 0.1 mol/L in TPH/1-octanol (90:10); remark: listed apart in the source
Description: as §1, §2, §3, §4, §5
A 0.1 mol/L solution of compound 4 in the "TPH/1-octanol (90:10)%vol" mixture was prepared. Extraction experiments were carried out with said simulated HLLW in a pure form and also adding oxalic acid and HEDTA to it. These complexing agents have shown to be effective in the DIAMEX process for the complexing of Mo, Zr (H2C2O4) and Pd (HEDTA).

[3] = as above; settings: for Distribution coefficients Sr: 0.1 mol/L in TPH/1-octanol (90:10)
Experimental: as §1
The composition of the HLLW corresponds to a burn-up of 33 GWd/tHM, the generated volume of HLLW being 5000 1/t of fuel. […] Oxalic acid and N-(2-hydroxyethyl)ethylenediaminotriacetate (HEDTA) were also added before the extraction tests.
as §4, §5, §6, §6

[4] = Oxalic acid 0.2 mol/L, HEDTA 0.05 mol/L, TBP 0.5 mol/L
[5] = Oxalic acid 0.2 mol/L, HEDTA 0.05 mol/L, TBP No
[6] = Oxalic acid 0.3 mol/L, HEDTA 0.05 mol/L, TBP 0.5 mol/L
[7] = Oxalic acid 0.3 mol/L, HEDTA 0.05 mol/L, TBP No
[8] = Oxalic acid No, HEDTA No, TBP 0.5 mol/L
[9] = Oxalic acid No, HEDTA No, TBP No

2-Dioctylcarbamoylmethoxy-N-[3-[3-(2-dioctylcarbamoyl-methoxyacetylamino)propoxy]propyl]acetamide [Compound 18]
stability against hydrolysis (Hydrolytic stability): very stable against hydrolysis | Distribution coefficients Cr [1, 4]: 0.006 | Distribution coefficients Cu [1, 4]: 0.085 | Distribution coefficients Fe [1, 4]: 0.001 | Distribution coefficients Ni [1, 4]: 0.015 | Distribution coefficients Cr [1, 5]: 0.006 | Distribution coefficients Cu [1, 5]: 0.075 | Distribution coefficients Fe [1, 5]: 0.001 | Distribution coefficients Ni [1, 5]: 0.014 | Distribution coefficients Cr [1, 6]: 0.006 | Distribution coefficients Cu [1, 6]: 0.093 | Distribution coefficients Fe [1, 6]: 0.009 | Distribution coefficients Ni [1, 6]: 0.015 | Distribution coefficients Cr [1, 7]: 0.006 | Distribution coefficients Cu [1, 7]: 0.083 | Distribution coefficients Fe [1, 7]: 0.001 | Distribution coefficients Ni [1, 7]: 0.014 | Distribution coefficients Cr [1, 8]: 0.006 | Distribution coefficients Cu [1, 8]: 0.067 | Distribution coefficients Fe [1, 8]: 0.001 | Distribution coefficients Ni [1, 8]: 0.014 | Distribution coefficients Cr [1, 9]: 0.006 | Distribution coefficients Cu [1, 9]: 0.064 | Distribution coefficients Fe [1, 9]: 0.001 | Distribution coefficients Ni [1, 9]: 0.014

2-Dioctylcarbamoylmethoxy-N-[3-[(2-dioctylcarbamoyl-methoxy-acetylamino)methyl]benzyl]acetamide [Compound 4]
stability against hydrolysis (Hydrolytic stability): very stable against hydrolysis | Distribution coefficients Dy [2, 4]: 86 | Distribution coefficients Sb [2, 4]: 0.012 | Distribution coefficients Sn [2, 4]: 0.0087 | Distribution coefficients Tb [2, 4]: 54 | Distribution coefficients Te [2, 4]: 0.0012 | Distribution coefficients Dy [2, 5]: 171 | Distribution coefficients Sb [2, 5]: 0.011 | Distribution coefficients Sn [2, 5]: 0.0076 | Distribution coefficients Tb [2, 5]: 153 | Distribution coefficients Te [2, 5]: 0.0014 | Distribution coefficients Dy [2, 6]: 184 | Distribution coefficients Sb [2, 6]: 0.011 | Distribution coefficients Sn [2, 6]: 0.0072 | Distribution coefficients Tb [2, 6]: 77 | Distribution coefficients Te [2, 6]: 0.0011 | Distribution coefficients Dy [2, 7]: 195 | Distribution coefficients Sb [2, 7]: 0.012 | Distribution coefficients Sn [2, 7]: 0.0092 | Distribution coefficients Tb [2, 7]: 107 | Distribution coefficients Te [2, 7]: 0.0012 | Distribution coefficients Dy [2, 8]: 64 | Distribution coefficients Sb [2, 8]: 0.011 | Distribution coefficients Sn [2, 8]: 0.0089 | Distribution coefficients Tb [2, 8]: 57 | Distribution coefficients Te [2, 8]: 0.0012 | Distribution coefficients Dy [2, 9]: 141 | Distribution coefficients Sb [2, 9]: 0.012 | Distribution coefficients Sn [2, 9]: 0.0073 | Distribution coefficients Tb [2, 9]: 123 | Distribution coefficients Te [2, 9]: 0.0011 | factor by which the Sr distribution coefficient is lower than that obtained with TODGA [3]: 10 | Dsr ([3]; 0.1 mol/L in TPH/1-octanol (90:10)%vol, summary of all conditions): < 0.13 | Distribution coefficients Sr [3, 4]: 0.071 | Distribution coefficients Sr [3, 5]: 0.110 | Distribution coefficients Sr [3, 6]: 0.099 | Distribution coefficients Sr [3, 7]: 0.132 | Distribution coefficients Sr [3, 8]: 0.061 | Distribution coefficients Sr [3, 9]: 0.071
